Reference: US10603335B2, “Cancer treatment combination compositions, methods and uses” (Board of Supervisors of Louisiana State University and …, priority 2016, dated 2020)

Legend:
[1] = tested on: cleaved PARP, XIAP and cIAP2 in MiaPaca-2 cells; experiment: Western blot of apoptosis markers and inhibitors of apoptosis, MiaPaca-2; format: cell-based, human; settings: for XIAP and c-IAP2 protein levels: 24 h
Experimental: (§1) Pancreatic cells were collected after trypsinization and seeded in 12-well plates for 24 h before treatments. Treatments were performed as described in the Figure legends. Following treatment, whole cell lysates were collected in Laemmli buffer and analyzed by Western blot. The following primary antibodies were used: XIAP, c-IAP2, cleaved PARP, Caspase-3 (all from Cell Signaling), actin (Santa Cruz) and LHRHR (Abcam).
(§2) Western blot analysis. Actin, GAPDH and Ponceau staining were used as loading controls. Gemcitabine was diluted in water. Curcumin and LHRH-curcumin were diluted in DMSO. Cells were treated as follows:
(§3) Western blot analysis. Actin, GAPDH and Ponceau staining were used as loading controls. Gemcitabine was diluted in water. Curcumin and LHRH-curcumin were diluted in DMSO. The cells were treated as follows:
(§4) Western blot analysis. Actin was used as loading control. Both gemcitabine and LHRH-curcumin were diluted in water.

[2] = tested on: cleaved PARP, XIAP and cIAP2 in Panc-1 cells; experiment: Western blot of apoptosis markers and inhibitors of apoptosis, Panc-1; format: cell-based; settings: for XIAP and c-IAP2 protein levels: 24 h
Experimental: as §1, §2, §3, §4

[3] = tested on: cleaved PARP, XIAP and cIAP2 in AsPC-1 cells; experiment: Western blot of apoptosis markers and inhibitors of apoptosis, AsPC-1; format: cell-based; settings: for XIAP and c-IAP2 protein levels: 24 h
Experimental: as §1, §2
(§5) Western blot analysis. Actin, GAPDH and Ponceau staining were used as loading controls. Gemcitabine was diluted in water. Curcumin and LHRH-curcumin were diluted in DMSO.

[4] = tested on: cleaved PARP, XIAP and cIAP2 in BxPC-3 cells; experiment: Western blot of apoptosis markers and inhibitors of apoptosis, BxPC-3; format: cell-based; settings: for XIAP and c-IAP2 protein levels: 24 h
Experimental: as §1, §2, §5

[5] = tested on: XIAP, cIAP1 and cIAP2 mRNA in Panc-1 cells; experiment: Quantitative PCR of inhibitors of apoptosis, Panc-1; format: cell-based; settings: 50 uM, 24 h post-treatment, relative to DMSO, GAPDH reference
Experimental: mRNA levels of XIAP, c-IAP1 and c-IAP2 were determined by quantitative real-time PCR using the SYBR Green Real-Time PCR Master Mix form ThermoFisher. Thermal cycling was carried out using the CFX system from BioRad under the following conditions: 95° C. for 10 min and 40 cycles at 95° C. for 15 s and 55° C. for 60 s. mRNA expression for any given gene is represented as comparative to the DMSO-treated cells. GAPDH was used as the housekeeping gene of reference.
GAPDH was used as a reference. Results presented in FIG. 12A (XIAP relative mRNA levels), FIG. 12B (cIAP1 relative mRNA levels), FIG. 12C (cIAP2 relative mRNA levels).

Panc-1 cells spheroids = experiment: 3D spheroid growth (IncuCyte ZOOM), Panc-1; format: cell-based; settings: LHRH 30 μM, LHRH-curcumin 30 μM
Experimental: A protocol that enables the growth of identical size single cancer cell spheroids in Matrigel in 96 well plates has been developed.
Panc-1 and Mia-Paca-2 cells were grown in 10% FBS DMEM. Cells were collected after trypsinization and resuspended in phenol-red free DMEM with 10% FBS. Cells were labeled with CellTracker Red (Life Techmologies) for 5 minutes. After labeling cells were washed with PBS and transfer into 96-well Corning 7007 ULA round bottom plates at 1,000 cells/well in 100 μl phenol-red free media with 10% FBS and 5% Matrigel. […] Spheroids were grown at 37° C. and 5% CO2 in IncuCyte ZOOM (Essen Bioscience). Images were acquired every 4 h for a period of 120 h post-treatment and software analysis was design to identify the red object in the well. The data were expressed as fold increase in spheroids size at the end of the treatment using the “average red object area in the well” as determined by the IncuCyte software analysis. Reproducibility was confirmed in three independent experiments. Spheroids grew at a uniform rate (FIG. 1).

[6] = tested on: non-target control (NT) Panc-1 spheroides; experiment: 3D spheroid growth, non-target control (NT) Panc-1; format: cell-based; settings: 30 μM
[7] = 50 uM in the presence of gemcitabine (5 uM)
[8] = curcumin, LHRH-curcumin 50 uM and 100 uM alone, gemcitabine alone
[9] = 24 h post-treatment, curcumin, LHRH-curcumin 10-100 uM, gemcitabine 1-20 uM

Molecule | XIAP and c-IAP2 protein levels [1, 7] | XIAP and c-IAP2 protein levels [1, 8] | apoptosis marker cleaved PARP [1, 9] | XIAP and c-IAP2 protein levels [2, 7] | XIAP and c-IAP2 protein levels [2, 8] | apoptosis marker cleaved PARP [2, 9] | XIAP and c-IAP2 protein levels [3, 7] | XIAP and c-IAP2 protein levels [3, 8] | apoptosis marker cleaved PARP [3, 9] | XIAP and c-IAP2 protein levels [4, 7] | XIAP and c-IAP2 protein levels [4, 8] | apoptosis marker cleaved PARP [4, 9] | mRNA levels of XIAP, cIAP1 and c-IAP2 [5] | spheroids growth (Panc-1 cells spheroids) | spheroids growth [6]
COc1cc(/C=C/C(=O)CC(=O)/C=C/c2ccc(O)c(OC)c2)ccc1O [curcumin] | down-regulated | down-regulated | initiate apoptosis as illustrated by the presence of cleaved PARP | down-regulated | down-regulated | initiate apoptosis as illustrated by the presence of cleaved PARP | down-regulated | down-regulated | initiate apoptosis as illustrated by the presence of cleaved PARP | down-regulated | down-regulated | initiate apoptosis as illustrated by the presence of cleaved PARP | down-regulated |  | 
luteinizing hormone releasing hormone (EHWSYGLRPG) [LHRH, Gonadotropin-releasing hormone (GnRH, also called luteinizing hormone releasing hormone or LHRH), reference compound] |  |  |  |  |  |  |  |  |  |  |  |  |  | inhibitory effect on spheroids growth | inhibitory effect on NT Panc-1 spheroids growth
